Structures are written as SMILES.

The target of assay [1] is human A2a adenosine receptor (Homo sapiens (Human), UniProt P29274). Description: A2a receptor affinity radioligand binding assay ([3H] SCH58261, membranes from HEK293 or CHO cells). As to conditions: unstarred values: radioligand binding. The method, boiled down: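 Displacement of tritiated SCH58261 (working dilution 4 nM) from recombinant human A2a receptor membranes (HEK293 or CHO), 60 min at room temperature in Tris pH 7.4/MgCl2 buffer after 15–30 min compound preincubation. Scintillation counting after filtration; normalized percent effect fitted 4-parameter logistic for IC50.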
Sequence of human A2a adenosine receptor (P29274 whole entry): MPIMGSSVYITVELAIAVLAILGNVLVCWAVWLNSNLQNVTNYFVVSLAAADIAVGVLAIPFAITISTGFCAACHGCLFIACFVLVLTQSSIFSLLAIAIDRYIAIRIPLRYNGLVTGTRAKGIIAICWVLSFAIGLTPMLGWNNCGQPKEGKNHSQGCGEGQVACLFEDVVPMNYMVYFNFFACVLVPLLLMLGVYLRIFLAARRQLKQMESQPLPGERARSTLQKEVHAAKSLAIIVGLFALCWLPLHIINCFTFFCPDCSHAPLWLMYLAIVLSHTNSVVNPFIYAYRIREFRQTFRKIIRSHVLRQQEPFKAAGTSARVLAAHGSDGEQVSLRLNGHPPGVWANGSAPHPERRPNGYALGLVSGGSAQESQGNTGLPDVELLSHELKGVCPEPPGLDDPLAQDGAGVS

Assay [2] has as its target human A2b adenosine receptor (Homo sapiens (Human), UniProt P29275). Description: A2b radioligand filtration binding assay (tritiated proprietary A2b antagonist, HEK293 membranes). To be noted: for IC50: unstarred values: radioligand binding; for A2B binding % inh. @ 10000 nM: unstarred. The method, boiled down: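 Displacement of a tritiated proprietary A2b antagonist from membranes of HEK293 cells recombinantly expressing human A2b receptor, measured by filtration and scintillation counting. Percent effect was normalized to total and non-specific binding and fitted with a 4-parameter logistic to give IC50.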

Sequence of human A2b adenosine receptor (P29275 whole entry): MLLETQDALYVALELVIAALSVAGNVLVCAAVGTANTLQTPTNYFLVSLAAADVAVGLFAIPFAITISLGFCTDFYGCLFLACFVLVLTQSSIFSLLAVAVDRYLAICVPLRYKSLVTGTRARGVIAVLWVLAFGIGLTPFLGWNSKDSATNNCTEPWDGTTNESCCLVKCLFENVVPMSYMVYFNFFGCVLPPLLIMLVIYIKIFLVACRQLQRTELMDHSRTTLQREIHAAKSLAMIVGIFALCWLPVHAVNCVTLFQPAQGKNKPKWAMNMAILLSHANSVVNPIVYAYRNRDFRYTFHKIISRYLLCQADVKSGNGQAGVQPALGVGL

Take `COc1ccc2c(c1)nc(N)n1nc([C@@H]3CCCN(c4cnn([C@H]5C[C@@](C)(O)C5)c4)C3)nc21` [Example 182, (1S,3s)-3-(4-((R)-3-(5-amino-8-methoxy-[1,2,4]-triazolo[1,5-c]quinazolin-2-yl)piperidin-1-yl)-1H-pyrazol-1-yl)-1-methylcyclobutan-1-ol]: the values for the IC50 in assay [1] and in assay [2] were 1.3 nM and 188 nM, respectively.

In the case of `COc1ccc2c(c1)nc(N)n1nc([C@@H]3CCCN(c4cnn(CC5(CF)COC5)c4)C3)nc21` [Example 183, (R)-2-(1-(1-((3-(fluoromethyl)oxetan-3-yl)methyl)-1H-pyrazol-4-yl)piperidin-3-yl)-8-methoxy-[1,2,4]triazolo[1,5-c]quinazolin-5-amine], the IC50 in assay [1] was found to be 157 nM; in assay [2] it was 4070 nM.

On to `COc1ccc2c(c1)nc(N)n1nc([C@@H]3CCCN(c4cnn([C@H](C)C(C)(C)O)c4)C3)nc21` [Example 185A], for which the IC50 stood at 0.8 nM in assay [1] and 98.1 nM in assay [2].

As for `COc1ccc2c(c1)nc(N)n1nc([C@@H]3CCCN(c4cnn([C@@H](C)C(C)(C)O)c4)C3)nc21` [Example 185B, (S)-3-(4-((R)-3-(5-amino-8-methoxy-[1,2,4]triazolo[1,5-c]quinazolin-2-yl)piperidin-1-yl)-1H-pyrazol-1-yl)-2-methylbutan-2-ol], the IC50 in assay [1] is 1 nM; in assay [2], 116 nM.

`COc1ccc2c(c1)nc(N)n1nc([C@@H]3CCCN(c4cn([C@H](C)C(C)(C)O)nc4C)C3)nc21` [Example 186A]: the IC50 in assay [1] stood at 0.4 nM; in assay [2], 462 nM.

Take `COc1ccc2c(c1)nc(N)n1nc([C@@H]3CCCN(c4cn([C@@H](C)C(C)(C)O)nc4C)C3)nc21` [Example 186B, (S)-3-(4-((R)-3-(5-amino-8-methoxy-[1,2,4]triazolo[1,5-c]quinazolin-2-yl)piperidin-1-yl)-3-methyl-1H-pyrazol-1-yl)-2-methylbutan-2-ol]: the figures for the 50% inhibitory concentration (IC50) in assay [1] and in assay [2] were 0.4 nM and 323 nM, respectively.

As to `COc1ccc2c(c1)nc(N)n1nc([C@@H]3CCCN(c4cnn([C@@H]5CCC[C@H]5O)c4)C3)nc21` [Example 187A, (1R,2R)-2-(4-((R)-3-(5-amino-8-methoxy-[1,2,4]triazolo[1,5-c]quinazolin-2-yl)piperidin-1-yl)-1H-pyrazol-1-yl)cyclopentan-1-ol], the values for the 50% inhibitory concentration (IC50) in assay [1] and in assay [2] were 2.8 nM and 1290 nM, respectively.

As to `COc1ccc2c(c1)nc(N)n1nc([C@@H]3CCCN(c4cnn([C@H]5CCC[C@@H]5O)c4)C3)nc21` [Example 187B, (1S,2S)-2-(4-((R)-3-(5-amino-8-methoxy-[1,2,4]triazolo[1,5-c]quinazolin-2-yl)piperidin-1-yl)-1H-pyrazol-1-yl)cyclopentan-1-ol], the concentration for half-maximal inhibition (IC50) in assay [1] was found to be 406 nM. Moreover, the “A2B binding % inh. @ 10000 nM” value in assay [2] stood at 16% inh. @ 10000 nM.

As for `COc1ccc2c(c1)nc(N)n1nc([C@@H]3CCCN(c4cnn(C(C)(C)CO)c4)C3)nc21` [Example 188, (R)-2-(4-(3-(5-amino-8-methoxy[1,2,4]triazolo[1,5-c]quinazolin-2-yl)piperidin-1-yl)-1H-pyrazol-1-yl)-2-methylpropan-1-ol], the concentration for half-maximal inhibition (IC50) in assay [1] was determined as 0.7 nM; in assay [2], 44.6 nM.

In the case of `COc1ccc2c(c1)nc(N)n1nc([C@@H]3CCCN(c4cnn([C@H](C)C(C)(C)O)c4C)C3)nc21` [Example 189A, (R)-3-(4-((R)-3-(5-amino-8-methoxy[1,2,4]triazolo[1,5-c]quinazolin-2-yl)piperidin-1-yl)-5-methyl-1H-pyrazol-1-yl)-2-methylbutan-2-ol], the results for the IC50 in assay [1] and in assay [2] were 0.6 nM and 228 nM, respectively.

Turning to `COc1ccc2c(c1)nc(N)n1nc([C@@H]3CCCN(c4cnn([C@@H](C)C(C)(C)O)c4C)C3)nc21` [Example 189B, (S)-3-(4-((R)-3-(5-amino-8-methoxy-[1,2,4]triazolo[1,5-c]quinazolin-2-yl)piperidin-1-yl)-5-methyl-1H-pyrazol-1-yl)-2-methylbutan-2-ol], the half-inhibitory concentration (IC50) in assay [1] is 0.7 nM; in assay [2], 291 nM.

Turning to `COc1ccc2c(c1)nc(N)n1nc([C@@H]3CCCN(c4cnc(OC(F)F)c(C)c4)C3)nc21` [Example 190, (R)-2-(1-(6-(difluoromethoxy)-5-methylpyridin-3-yl)piperidin-3-yl)-8-methoxy-[1,2,4]triazolo[1,5-c]quinazolin-5-amine], the concentration for half-maximal inhibition (IC50) is 10.1 nM in assay [1] and 480 nM in assay [2].

For `COc1ccc2c(c1)nc(N)n1nc([C@@H]3CCCN(c4ccc(OC(F)F)nc4)C3)nc21` [Example 191, (R)-2-(-(6-(difluoromethoxy)pyridin-3-yl)piperidin-3-yl)-8-methoxy-[1,2,4]triazolo[1,5-c]quinazolin-5-amine], the results for the IC50 in assay [1] and in assay [2] were 2.5 nM and 18.4 nM, respectively.

As to `COc1ccc2c(c1)nc(N)n1nc([C@@H]3CCCN(c4ccc(OC(C)C)nc4)C3)nc21` [Example 192, (R)-2-(1-(6-isopropoxypyridin-3-yl)piperidin-3-yl)-8-methoxy-[1,2,4]triazolo[1,5-c]quinazolin-5-amine], the results for the IC50 in assay [1] and in assay [2] were 2.5 nM and 22.7 nM, respectively.

With `COc1ccc2c(c1)nc(N)n1nc([C@@H]3CCCN(c4ccc(C(C)=O)cc4)C3)nc21` [Example 193, (R)-1-(4-(3-(5-amino-8-methoxy-[1,2,4]-triazolo[1,5-c]quinazolin-2-yl)piperidin-1-yl)phenyl)ethan-1-one], the IC50 in assay [1] turned out to be 2.2 nM; in assay [2] it was 130 nM.

Regarding `COc1ccc2c(c1)nc(N)n1nc([C@@H]3CCCN(c4ncn(CC(C)(C)O)n4)C3)nc21` [Example 194, (R)-1-(3-(3-(5-amino-8-methoxy-[1,2,4]triazolo[1,5-c]quinazolin-2-yl)piperidin-1-yl)-1H-1,2,4-triazol-1-yl)-2-methylpropan-2-ol], the results for the concentration for half-maximal inhibition (IC50) in assay [1] and in assay [2] were 6.7 nM and 528 nM, respectively.

Turning to `COc1ccc2c(c1)nc(N)n1nc([C@H]3C[C@@H](C)CN(c4cnn(CC(C)(C)O)c4)C3)nc21` [Example 195A], the IC50 in assay [1] turned out to be 35.9 nM; in assay [2], 5810 nM.

In the case of `COc1ccc2c(c1)nc(N)n1nc([C@@H]3C[C@@H](C)CN(c4cnn(CC(C)(C)O)c4)C3)nc21` [Example 195B], the IC50 in assay [1] stood at 1.7 nM; in assay [2], 9690 nM.

On to `COc1ccc2c(c1)nc(N)n1nc([C@H]3C[C@H](C)CN(c4cnn(CC(C)(C)O)c4)C3)nc21` [Example 195C], for which the 50% inhibitory concentration (IC50) in assay [1] is 281 nM; in assay [2], 9440 nM.

In the case of `COc1ccc2c(c1)nc(N)n1nc([C@H]3C[C@@H](F)CN(c4cnn(CC(C)(C)O)c4)C3)nc21` [Example 196A], the 50% inhibitory concentration (IC50) was determined as 2.9 nM in assay [1] and 802 nM in assay [2].

The compound `COc1ccc2c(c1)nc(N)n1nc([C@H]3C[C@@H](F)CN(c4cn(CC(C)(C)O)nc4C)C3)nc21` [Example 197A, 1-(4-((3S,5R)-3-(5-amino-8-methoxy-[1,2,4]triazolo[1,5-c]quinazolin-2-yl)-5-fluoropiperidin-1-yl)-3-methyl-1H-pyrazol-1-yl)-2-methylpropan-2-ol] had an IC50 in assay [1] of 99 nM. Moreover, the “A2B binding % inh. @ 10000 nM” value in assay [2] is listed as 31% inh. @ 10000 nM.

With `COc1ccc2c(c1)nc(N)n1nc([C@@H]3C[C@H](F)CN(c4cn(CC(C)(C)O)nc4C)C3)nc21` [Example 197B, 1-(4-((3R,5S)-3-(5-amino-8-methoxy-[1,2,4]triazolo[1,5-c]quinazolin-2-yl)-5-fluoropiperidin-1-yl)-3-methyl-1H-pyrazol-1-yl)-2-methylpropan-2-ol], the IC50 came to 0.4 nM in assay [1] and 1370 nM in assay [2].

Turning to `C[C@H]1CC[C@@H](c2nc3c4ccc(C(F)F)cc4nc(N)n3n2)CN1c1cnn(CC(C)(C)O)c1` [Example 201, 1-(4-((2S,5R)-5-(5-amino-8-(difluoromethyl)-[1,2,4]triazolo[1,5-c]quinazolin-2-yl)-2-methylpiperidin-1-yl)-1H-pyrazol-1-yl)-2-methylpropan-2-ol], the results for the half-maximal inhibitory concentration (IC50) in assay [1] and in assay [2] were 2.8 nM and 10.6 nM, respectively.

With `C[C@H]1CC[C@@H](c2nc3c4ccc(C#N)cc4nc(N)n3n2)CN1c1cnn(CC(C)(C)O)c1` [Example 202, 5-amino-2-((3R,6S)-1-(1-(2-hydroxy-2-methylpropyl)-1H-pyrazol-4-yl)-6-methylpiperidin-3-yl)-[1,2,4]triazolo[1,5-c]quinazoline-8-carbonitrile], the values for the 50% inhibitory concentration (IC50) in assay [1] and in assay [2] were 4.2 nM and 211 nM, respectively.

With `C[C@H]1CC[C@@H](c2nc3c4ccc(Cl)cc4nc(N)n3n2)CN1c1cnn(CC(C)(C)O)c1` [Example 203, 1-(4-((2S,5R)-5-(5-amino-8-chloro-[1,2,4]triazolo[1,5-c]quinazolin-2-yl)-2-methylpiperidin-1-yl)-1H-pyrazol-1-yl)-2-methylpropan-2-ol], the IC50 in assay [1] turned out to be 0.7 nM; in assay [2], 1.7 nM.

Turning to `COc1ccc2c(c1)nc(N)n1nc([C@@H]3CC[C@H](C)N(c4cnn(CC(C)(C)O)c4)C3)nc21` [Example 204, 1-(4-((2S,5R)-5-(5-amino-8-methoxy-[1,2,4]triazolo[1,5-c]quinazolin-2-yl)-2-methylpiperidin-1-yl)-1H-pyrazol-1-yl)-2-methylpropan-2-ol], the IC50 in assay [1] is 0.4 nM; in assay [2], 1.1 nM.

Take `CCc1ccc2c(c1)nc(N)n1nc([C@@H]3CC[C@H](C)N(c4cnn(CC(C)(C)O)c4)C3)nc21` [Example 207, 1-(4-((2S,5R)-5-(5-amino-8-ethyl-[1,2,4]triazolo[1,5-c]quinazolin-2-yl)-2-methylpiperidin-1-yl)-1H-pyrazol-1-yl)-2-methylpropan-2-ol]: the IC50 worked out at 2.8 nM in assay [1] and 125 nM in assay [2].

What is called IC50 is the concentration needed to halve the response being measured. Low values mean greater potency in that assay, high ones weaker potency in that assay.

Source of the values: patent publication US12263171B2, “7-, 8-, and 10-substituted amino triazolo quinazoline derivatives as adenosine receptor antagonists, pharmaceutical compositions and their use” (Merck Sharp & Dohme LLC, priority 2018, dated 2025).
